Here are results for 5 compounds from ChEMBL document CHEMBL5608244, “Preclinical Evaluation of Dihydropyrazole-Cored Positron Emission Tomography (PET) Ligands for Imaging of Receptor-Interacting Serine/Threonine Protein Kinase 1 (RIPK1) in the Brain” (J Med Chem, 2024).

As a reminder, the logD is lipophilicity at a set pH, counting ionised and neutral species. Read a low logD as a more hydrophilic compound.

A value given as a limit tells only on which side of the number the result lay.

The nature of data set [1]: Retention time of the compound by HPLC method. Type of data set: physicochemical.
Data set [2] can be described thus: Drug uptake in Sprague-Dawley rat bone at 10 to 17.6 MBq, iv treated upto 30 mins by PET analysis. Type of data set: ADME, organism-based, Bone element. The note with it: in vivo, 0.5 h, dose 10-17.6 MBq.
A short description of data set [3]: Drug uptake in Sprague-Dawley rat brain at 10 to 17.6 MBq, iv treated for about 1 min by PET analysis. In kind it is ADME, organism-based. The note with it: in vivo, dose 10-17.6 MBq.
Data set [4] in a line: Lipophilicity, logD of compound at pH 7.4 by shake flask method. As to conditions: buffer; call rule not given here. In kind it is physicochemical.
Data set [5] is described as follows: Drug uptake in Sprague-Dawley rat brain at 10 to 17.6 MBq, iv pretreated with 1-(5-(3-fluorophenyl)-4,5-dihydro-1H-pyrazol-1-yl)-2,2-dimethylpropan-1-one followed by compound administration measured upto 30 mins by PET analysis. In kind it is ADME, organism-based. As to conditions: in vivo, 0.5 h, dose 10-17.6 MBq.
A short description of data set [6]: Stability in saline measured for 60 to 150 mins by reversed-phase HPLC analysis. In kind it is physicochemical. The note with it: buffer; time 60-150 min.
Data set [7] in a line: Stability in Balb/c mouse plasma measured for 60 to 150 mins by reversed-phase HPLC analysis. Type of data set: ADME. As to conditions: time 60-150 min.

`Cc1ccc(C2CC=NN2C(=O)C(C)(C)C)cc1F` (stereo not given) returned a Retention_time in data set [1] of 21.7 min.
Same read-out and setting: the same measure for `CC(C)(C)C(=O)N1N=CCC1c1cccc(F)c1` (stereo not given): 21.74 min; for `CC(C)(C)C(=O)N1N=CCC1c1cc(F)cc(F)c1` (stereo not given): 13.66 min.
For `Cc1ccc(C2CC=NN2C(=O)C(C)(C)C)cc1[18F]` (stereo not given), the values for the Drug uptake entry in data set [2] and in data set [5] were “Not Active” and “Active”, respectively. In data set [1], this compound yielded a Retention_time of 21.81 min. In data set [3], the SUVmax was 1.4. Further, the logD in data set [4] came to 2.98.
Take `CC(C)(C)C(=O)N1N=CCC1c1cc(F)cc([18F])c1` (stereo not given): the Stability in data set [6] is reported as above 99%; in data set [7] it was above 97%. Moreover, the Drug uptake entry in data set [2] is “Not Active”; in data set [5] it was “Active”. The same compound came in with a Retention_time in data set [1] of 13.76 min. Also, the SUVmax in data set [3] turned out to be 1.8. This compound also registered a logD in data set [4] of 2.58.
